Measurements as given in PMC12316928, “Synthesis and evaluation of novel thiohydantoin derivatives for antidiabetic activity using in silico in vitro and in vivo methods” (Scientific Reports, 2025).
Values after ≈ are worked out from the molar mass of the structure shown. Values joined by “and” are separate entries in the source; they are usually repeats but may differ in a detail not shown here. Equal values may be shown once. “Also recorded” adds a separate entry of the source.

Assays:
[1] = tested on: STZ-induced diabetic rats; experiment: Effect on FBG, body weight and HbA1C over 6 weeks; assay type: in vivo, Sprague Dawley rats; design: % Reduction in FBG: concentration or dose not given beside the values; settings: for BW (Day 0) / FBG (Day 0): Day 0, baseline; for % Reduction in FBG / % Change in BW: Day 0 to Day 42; for BW (Day 42) / FBG (Day 42): Day 42 of treatment; for HbA1C: end of 6-week treatment
Experimental: (§1) Diabetes will be induced in rats (n = 6 per group) by a single intraperitoneal injection of 60-100 mg/kg body weight (BW) streptozotocin dissolved in normal saline. After 5 days of streptozotocin injection, the tail vein blood will be collected to determine the fasting blood glucose (FBG) level. Only rats with FBG over 200 mg/dl will be considered diabetic and used for further experimentation.
Diabetic Rats (n = 6 per group) will be randomly assigned to groups of six animals each in order to examine the impact of synthetic derivatives on FBG level, BW, and HbA1C. The course of treatment will last for six weeks. At the beginning of the experiment and at weekly intervals during the first 42 days of therapy, the FBG level and BW will be measured. Rats will be denied food for 12 h while fasting, but they will have unrestricted access to water. Commercial glucose oxidase kits will be used to measure the blood glucose level. Blood 7 will be collected through cardiac puncture at the end of study period and levels of HbA1C will be determined. Metformin will be used as standard for comparison purpose.

[2] = tested on: STZ-induced diabetic rats; experiment: Physiological parameters (lipid profile); assay type: in vivo, Sprague Dawley rats; settings: Fig. 1; for HDL / LDL / triglycerides: after treatment
Experimental: as §1
Animals will be sacrificed after […] of treatment and parameters including LDL, triglycerides, HDL cholesterol, and glucose will be determined by using KONELAB SYSTEM (Thermo Fisher Scientific, Finland) according to manufacturer’s guidelines.

[3] = tested on: STZ-induced diabetic rats; experiment: Fasting blood glucose and oral glucose tolerance test (OGTT); assay type: in vivo, Sprague Dawley rats; settings: for OGTT (after 120 min): 120 min after glucose 2.0 g/kg; for Fasting blood glucose: Table 7, mean ± SD, 5 rats per group; for FBG and OGTT reduction in words: compared to diabetic control
Experimental: […] After 5 days of streptozotocin injection, the tail vein blood will be collected to determine the fasting blood glucose (FBG) level. Only rats with FBG over 200 mg/dl will be considered diabetic and used for further experimentation.
This assay will be performed in animals after fasting for an overnight (12 h). Then, rats will receive a bolus of glucose (2.0 g/kg body weight) followed by test molecule or control and plasma glucose will be measured from blood collected from tail vein at 0, 30, 60, 90 and 120 min after glucose administration. Plasma glucose levels will be analyzed using commercially available glucometer kits[40].

[4] = DPPH free radical scavenging assay
Experimental: The antioxidant activity of synthesized compounds was evaluated using the DPPH free-radical scavenging assay, following the methodology outlined by[34]. This assay is based on the principle that the stable free radical DPPH undergoes a color change from deep purple to yellow upon reduction, indicating hydrogen donation from antioxidant compounds. Different concentrations (3.12, 6.25, 12.5, 25, 50, 100, and 200 µg/mL) of test compounds were prepared in methanol. A 200 µL aliquot of each concentration was mixed with 50 µL of freshly prepared DPPH solution (0.659 mM). The reaction mixtures were incubated at room temperature for 20 min in the dark. Absorbance was recorded at 510 nm using an ELISA microplate reader. Trolox was employed as the reference antioxidant, and the percentage of inhibition was calculated using the following equation:
% Inhibition = [(A0 − A1)/A0] × 100.
Where A0 is the absorbance of the control, and A1 is the absorbance of the sample[34].

[5] = target: T1, α-glucosidase (EC3.2.1.20) (Saccharomyces cerevisiae, UniProt P53341); experiment: α-Glucosidase inhibitory activity assay; assay type: biochemical; settings: for inhibition at 200 µg/mL: read-out: %Inhibition (200 µg/ml) alpha glucosidase
T1 construct: purchased Sigma-Aldrich
Experimental: The ability of the synthesized compounds to inhibit α-glucosidase was determined as per the method described by[35]. […] After incubation at 37 °C for 10 min, the reaction was initiated by adding 25 µL of substrate (4 mM) and further incubating at 37 °C for 20 min. The absorbance was measured at 405 nm.

[6] = Cytotoxicity MTT assay; assay type: cell-based; settings: mouse, 3T3 fibroblast cells, 48 h, Mean ± SD, n = 3, read-out: IC₅₀ cytotoxicity MTT
Experimental: (§2) The cytotoxic effects of the selected compounds were evaluated against the 3T3 fibroblast cell line (Sigma-Aldrich, product no. 90020107) using the MTT (3-(4,5-dimethylthiazol-2-yl)−2,5-diphenyl tetrazolium bromide) assay, following the protocol established by Mosmann[38]. A cell suspension containing 1 × 10⁵ cells per well was seeded into a 96-well plate and incubated at 37 °C with 5% CO₂ for 48 h. The cells were then treated with different concentrations of test compounds (4, 16, 63, 250, and 1000 µg/mL, dissolved in DMSO) and incubated for an additional 48 h. Following incubation, 180 µL of MTT solution (5 mg/mL in PBS) was added to each well and incubated for 4 h. The formazan crystals formed were solubilized, and absorbance was measured at 570 nm using an ELISA reader. Celecoxib was used as a positive control.

[7] = tested on: 3T3 fibroblast cell line; experiment: Cytotoxicity MTT assay; assay type: cell-based
Experimental: as §2

[8] = relative to positive control (diabetic rats), Fig. 2

T1 sequence (P53341 whole entry): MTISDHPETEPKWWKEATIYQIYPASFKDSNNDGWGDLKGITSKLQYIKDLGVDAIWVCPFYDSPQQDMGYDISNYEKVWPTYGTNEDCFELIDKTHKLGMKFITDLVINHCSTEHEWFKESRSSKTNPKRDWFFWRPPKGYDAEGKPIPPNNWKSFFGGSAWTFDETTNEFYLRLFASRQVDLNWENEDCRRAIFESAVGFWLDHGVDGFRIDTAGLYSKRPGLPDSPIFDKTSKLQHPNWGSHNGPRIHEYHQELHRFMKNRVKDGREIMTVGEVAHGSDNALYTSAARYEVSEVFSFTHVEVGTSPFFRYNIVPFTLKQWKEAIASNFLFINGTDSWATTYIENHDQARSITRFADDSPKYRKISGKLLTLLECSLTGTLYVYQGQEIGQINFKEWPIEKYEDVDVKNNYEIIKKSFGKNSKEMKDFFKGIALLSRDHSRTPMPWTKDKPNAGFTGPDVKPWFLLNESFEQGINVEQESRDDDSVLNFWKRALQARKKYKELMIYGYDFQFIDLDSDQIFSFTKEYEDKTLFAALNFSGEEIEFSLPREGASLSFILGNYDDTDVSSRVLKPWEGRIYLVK

Row | SMILES | BW (Day 0) [1] [g] | FBG (Day 0) [1] [mg/dL] | % Reduction in FBG [1] [%] | BW (Day 42) [1] [g] | FBG (Day 42) [1] [mg/dL] | HbA1C [1] | OGTT (after 120 min) [3] [mg/dL] | Fasting blood glucose [3] [mg/dL] | DPPH free radical scavenging % inhibition ([4]; 3.12 µg/mL) [%] | DPPH free radical scavenging % inhibition ([4]; 6.25 µg/mL) [%] | DPPH free radical scavenging % inhibition ([4]; 12.5 µg/mL) [%] | DPPH free radical scavenging % inhibition ([4]; 25 µg/mL) [%] | DPPH free radical scavenging % inhibition ([4]; 50 µg/mL) [%] | DPPH free radical scavenging % inhibition ([4]; 100 µg/mL) [%] | DPPH free radical scavenging % inhibition ([4]; 200 µg/mL) [%] | inhibition at 200 µg/mL [5] [%] | IC50 at 48 h [6] [µg/mL] | Cytotoxicity category [7] | % Change in BW [1] [%] | FBG and OGTT reduction in words [3] | other results
1 | CN(C)C(=N)N=C(N)N [Metformin, reference compound] | 216.2 ± 8.0 | 282.3 ± 10.5 | 49.5 | 225.6 ± 9.4 | 142.5 ± 7.8 | 6.1 ± 0.3% | 159.4 ± 8.3 | 119.2 ± 6.5 |  |  |  |  |  |  |  |  |  |  |  |  | HDL [2]: 49.2 ± 2.7 mg/dL; LDL [2]: 45.1 ± 2.4 mg/dL; triglycerides [2]: 94.3 ± 5.1 mg/dL
2 | O=C1O[C@H]([C@@H](O)CO)C(O)=C1O [Ascorbic Acid, reference compound] |  |  |  |  |  |  |  |  | 30.2 ± 1.9 | 50.6 ± 2.5 | 68.9 ± 2.8 | 82.3 ± 3.1 | 89.6 ± 3.3 | 94.2 ± 3.5 | 96.8 ± 3.7 |  |  |  |  |  | 
3 | Cc1ccc(S(=O)(=O)N2CC(=O)NC2=S)cc1C(=O)O [FP5, 2-methyl-5-(4-oxo-2-sulfanylideneimidazolidine-1-sulfonyl)benzoic acid] | 216.8 ± 8.1 | 281.0 ± 9.9 | 21.6 | 200.1 ± 8.5 | 220.2 ± 9.2 | 7.8% and 7.8 ± 0.3% | 295.3 ± 9.9 | 236.1 ± 8.1 | 17.8 ± 1.2 | 29.6 ± 1.7 | 44.5 ± 2.3 | 58.7 ± 2.6 | 69.3 ± 2.9 | 73.1 ± 3.1 | 78.9 ± 3.3 | 33.2 ± 0.87 | 690 ± 13.2 (≈ 2190 µM) | Low cytotoxicity | −7.7 | significant reductions | IC₅₀ (concentration required to inhibit 50% of DPPH free radicals) [4]: 58.1 ± 2.6 µg/mL; alpha-glucosidase inhibition in words [5]: inactive; lipid profile effect in words [2]: moderate improvements; percentage reduction in FBG [3, 8]: 16.3%
4 | Cc1ccc(-c2cc(C(F)(F)F)nn2-c2ccc(S(N)(=O)=O)cc2)cc1 [Celecoxib, reference compound] |  |  |  |  |  |  |  |  |  |  |  |  |  |  |  |  | 342 ± 9.7 (≈ 897 µM) | Moderate cytotoxicity |  |  | 
5 | COc1ccc(S(=O)(=O)N2CC(=O)NC2=S)cc1C(=O)O [FP6, 2-methoxy-5-(4-oxo-2-sulfanylideneimidazolidine-1-sulfonyl)benzoic acid] |  |  |  |  |  |  | 307.5 ± 10.4 | 249.1 ± 8.5 | 8.5 ± 0.8 | 16.2 ± 1.1 | 24.9 ± 1.6 | 36.4 ± 2.2 | 44.7 ± 2.5 | 49.8 ± 2.6 | 53.6 ± 2.8 | 36.4 ± 1.03 | > 900 | negligible cytotoxicity; also recorded: Non-toxic |  | minor reductions | alpha-glucosidase inhibition in words [5]: inactive; IC₅₀ cytotoxicity MTT ([7]; 48 h, Mean ± SD, n = 3): 930.4 ± 10.6 µg/mL
6 | OCCN1C[C@H](O)[C@@H](O)[C@H](O)[C@H]1CO [Miglitol, reference compound] |  |  |  |  |  |  |  |  |  |  |  |  |  |  |  |  |  |  |  |  | inhibition at 50 µg/mL ([5]; read-out: %Inhibition alpha glucosidase): 87.9 ± 1.09%
7 | O=C1CN(S(=O)(=O)c2cccc(C(=O)O)c2)C(=S)N1 [FP2, 3-(4-oxo-2-sulfanylideneimidazolidine-1-sulfonyl)benzoic acid] | 218.3 ± 7.5 | 280.5 ± 10.1 | 24.9 | 202.8 ± 7.9 | 210.7 ± 9.6 | 7.5% and 7.5 ± 0.4% | 288.0 ± 9.5 | 229.9 ± 7.6 | 18.4 ± 1.3 | 31.3 ± 1.9 | 47.6 ± 2.4 | 62.9 ± 2.8 | 74.5 ± 3.1 | 79.8 ± 3.2 | 82.6 ± 3.3 | 48.1 ± 0.94 | 845 ± 12.7 (≈ 2810 µM) | Low cytotoxicity | −7.1 | significant reductions | IC₅₀ (concentration required to inhibit 50% of DPPH free radicals) [4]: 52.4 ± 2.5 µg/mL; lipid profile effect in words [2]: moderate improvements; percentage reduction in FBG [3, 8]: 18.5%
8 | CC(=O)c1cccc(S(=O)(=O)N2CC(=O)NC2=S)c1 [FP4, 1-(3-acetylbenzene-1-sulfonyl)−2-sulfanylideneimidazolidin-4-one] | 215.9 ± 7.8 | 279.1 ± 9.7 | 28.9 | 205.7 ± 8.6 | 198.4 ± 8.3 | 7.2 ± 0.3% | 275.2 ± 9.1 | 218.4 ± 7.3 | 22.1 ± 1.5 | 38.2 ± 2.1 | 55.7 ± 2.6 | 71.6 ± 3.0 | 81.2 ± 3.5 | 85.9 ± 3.7 | 87.4 ± 3.9 | 51.4 ± 1.25 | 598 ± 11.4 (≈ 2010 µM) | Moderate cytotoxicity | −4.7 |  | IC50 ([5]; Mean ± SD, read-out: IC50 alpha glucosidase (converted)): 434 µM; HDL [2]: 42.3 ± 2.5 mg/dL; LDL [2]: 54.8 ± 3.1 mg/dL; triglycerides [2]: 112.5 ± 6.2 mg/dL; percentage reduction in FBG [3, 8]: 22.6%; percentage reduction in OGTT [3, 8]: 19.4%
